Consider 36 compounds from patent US11261186B2, “Biaryl derivative as GPR120 agonist” (LG CHEM, LTD., priority 2014, dated 2022).

A word on the EC50: it is the concentration needed to bring the measured effect to its halfway point.

The target in the experiment is T1, hGPR120 (Homo sapiens, UniProt Q5NUL3).
T1 construct: expressed in transfected cells; host or cells: CHO-K1
T1 sequence (Q5NUL3 1-361): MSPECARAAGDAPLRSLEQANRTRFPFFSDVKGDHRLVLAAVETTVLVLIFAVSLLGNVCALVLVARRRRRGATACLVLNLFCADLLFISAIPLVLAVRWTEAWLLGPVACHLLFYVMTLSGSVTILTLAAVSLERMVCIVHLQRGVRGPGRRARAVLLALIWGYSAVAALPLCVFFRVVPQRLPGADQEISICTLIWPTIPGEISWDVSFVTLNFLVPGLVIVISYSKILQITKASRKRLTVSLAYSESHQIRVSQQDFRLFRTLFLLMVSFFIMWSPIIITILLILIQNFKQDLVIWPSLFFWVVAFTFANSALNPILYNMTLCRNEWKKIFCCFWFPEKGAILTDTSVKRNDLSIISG
The experiment in a line: Measurement of Activity of GPR120 Agonist (Cell-Based Assay), Calcium 5 dye fluorescence. The note with it: CHO-K1 cells expressing Ga16 and hGPR120. In short, it runs like this: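 CHO-K1 cells co-expressing Gα16 and hGPR120 were seeded, cultured 18 h at 37 °C, then loaded 1 h with Calcium 5 dye. Serially diluted agonists (final 0.5% DMSO) were added and fluorescence read at Ex 485/Em 525 nm, expressed as percent relative to 1% DMSO-only wells.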

On to `CN(CCCC(=O)O)c1ccc(-c2cccnc2SC2CCCC2)cc1F` [Example 213, 4-{[4-(2-cyclopentylsulfanyl-pyridin-3-yl)-2-fluoro-phenyl]-methyl-amino}-butyric acid], for which the EC50 is < 200 nM.
Under `CC(CCCC(=O)O)c1c(F)cc(-c2cccnc2OC2COC2)cc1F` (stereo not drawn) [Example 232, 5-{2,6-difluoro-4-[2-(oxetan-3-yloxy)-pyridin-3-yl]-phenyl}-hexanoic acid] stands 200 to 2000 nM.
Consider `O=C(O)CC1CN(c2c(F)cc(-c3cccnc3SC3CCCC3)cc2F)C1` [Example 112, 2-[1-[4-(2-cyclopentylsulfanyl-3-pyridyl)-2,6-difluoro-phenyl]azetidin-3-yl]acetic acid], for which the EC50 is < 200 nM.
As to `O=C(O)CC1CCN(c2c(F)cc(-c3nccc(Oc4ccc(Cl)cc4)n3)cc2F)C1` (stereo not drawn) [Example 509, 2-[1-[4-[4-(4-chlorophenoxy)pyrimidin-2-yl]-2,6-difluoro-phenyl]-pyrrolidin-3-yl]acetic acid], the EC50 lay within 200 to 2000 nM.
Next, `Cc1cc(OCC2CC2)nc(-c2cc(F)c(N(C)CCCC(=O)O)c(F)c2)n1` [Example 489, 4-[4-[4-(cyclopropylmethoxy)-6-methyl-pyrimidin-2-yl]-2,6-difluoro-N-methyl-anilino]butanoic acid]: < 200 nM.
Next, `O=C(O)CC1CCN(c2c(F)cc(-c3cccnc3OC3CCCC3)cc2F)CC1` [Example 102, 2-[1-[4-[2-(cyclopentoxy)-3-pyridyl]-2,6-difluoro-phenyl]-4-piperidyl]acetic acid]: < 200 nM.
Next, `COC(c1cccc(-c2cc(F)c(N3CCC(CC(=O)O)CC3)c(F)c2)n1)C1CC1` (stereo not drawn) [Example 318, 2-[1-[4-[6-[cyclopropyl(methoxy)methyl]-2-pyridyl]-2,6-difluoro-phenyl]-4-piperidyl]acetic acid]: 2000 to 20000 nM; `O=C(O)CCc1ccc2cc(-c3ccccc3Oc3ccccc3F)ccc2c1` [Example 151, 3-{6-[2-(2-fluoro-phenoxy)-phenyl]-naphthalen-2-yl}-propanoic acid]: 2000 to 20000 nM; `O=C(O)CCCOc1c(F)cc(-c2csc(OC3CCC3)n2)cc1Cl` [Example 426, 4-[2-chloro-4-(2-cyclobutoxy-thiazol-4-yl)-6-fluoro-phenoxy]-butyric acid]: < 200 nM.
Consider `CC(C)Sc1cccc(-c2cc(F)c(N3CCC4(CC3)CC4C(=O)O)c(F)c2)n1` (stereo not drawn) [Example 111, 6-[2,6-difluoro-4-(6-isopropylsulfanyl-2-pyridyl)phenyl]-6-azaspiro[2.5]octan-2-carboxylic acid], for which the EC50 was in the range of 2000 to 20000 nM.
Take `O=C(O)CCC1CC1c1c(F)cc(-c2cccc(OCC3CC3)n2)cc1F` (stereo not drawn) [Example 191, 3-{2-[4-(6-cyclopropylmethoxy-pyridin-2-yl)-2,6-difluoro-phenyl]-cyclopropyl}-propanoic acid]: the half-maximal effective concentration (EC50) was < 200 nM.
Under `CCOc1cccc(-c2cc(F)c(N3CCC(CC(=O)O)CC3)c(F)c2)n1` [Example 314, 2-[1-[4-(6-ethoxy-2-pyridyl)-2,6-difluoro-phenyl]-4-piperidyl]acetic acid] stands 200 to 2000 nM; under `CCN(CCCC(=O)O)c1c(F)cc(-c2cccnc2OCC2CCC2)cc1F` [Example 225, 4-{[4-(2-cyclobutylmethoxy-pyridin-3-yl)-2,6-difluoro-phenyl]-ethyl-amino}-butyric acid], 200 to 2000 nM; under `N#Cc1ccc2c(ccn2-c2cc(F)c(OCCCC(=O)O)c(F)c2)c1` [Example 469, 4-[4-(5-cyanoindol-1-yl)-2,6-difluoro-phenoxy]butanoic acid], 2000 to 20000 nM.
Next, `COc1ccc(-c2cc(F)c(N(C)CCCC(=O)O)c(F)c2)c2c1OC(C)(C)C2` [Example 259, 4-{[2,6-difluoro-4-(7-methoxy-2,2-dimethyl-2,3-dihydro-benzofuran-4-yl)-phenyl]-methyl-amino}-butyric acid]: < 200 nM.
On to `O=C(O)CCCOc1c(F)cc(-n2ccc3cccc(Cl)c32)cc1F` [Example 472, 4-[4-(7-chloroindol-1-yl)-2,6-difluoro-phenoxy]butanoic acid], for which the EC50 was < 200 nM.
Next, `O=C(O)CC1CCN(c2c(F)cc(-c3nc(OCC4CC4)cs3)cc2F)CC1` [Example 377, {1-[4-(4-cyclopropylmethoxy-thiazol-2-yl)-2,6-difluoro-phenyl]-piperidin-4-yl}acetic acid]: < 200 nM; `Cc1cc(-c2cc(F)c(N3CCC(CC(=O)O)CC3)c(F)c2)nc(OC2CCC2)n1` [Example 325, 2-[1-[4-[2-(cyclobutoxy)-6-methyl-pyrimidin-4-yl]-2,6-difluoro-phenyl]-4-piperidyl]acetic acid]: 200 to 2000 nM.
`CCCOc1cc(C(F)(F)F)nc(-c2cc(F)c(N3CCC(CC(=O)O)CC3)c(F)c2)n1` [Example 618, {1-[2,6-difluoro-4-(4-propoxy-6-trifluoromethyl-pyrimidin-2-yl)-phenyl]-piperidin-4-yl}-acetic acid]: the 50% effective concentration (EC50) fell in the range of 2000 to 20000 nM.
Under `O=C(O)CCCOc1c(F)cc(-c2cncc(OCC3CC3)n2)cc1Cl` [Example 431, 4-[2-chloro-4-(6-cyclopropylmethoxy-pyrazin-2-yl)-6-fluoro-phenoxy]-butyric acid] stands < 200 nM; under `CC(C)COc1cncc(-c2cc(F)c(N3CCC(CC(=O)O)CC3)c(F)c2)n1` [Example 342, 2-[1-[2,6-difluoro-4-(6-isobutoxypyrazin-2-yl)phenyl]-4-piperidyl]acetic acid], < 200 nM; under `O=C(O)CCCOc1c(F)cc(-c2cncc(OC3CCC3)n2)cc1F` [Example 398, 4-[4-[6-(cyclobutoxy)pyrazin-2-yl]-2,6-difluoro-phenoxy]butanoic acid], < 200 nM.
Regarding `O=C(O)CCCCc1c(F)cc(-c2cccnc2OC2CCC2)cc1F` [Example 251, 5-[4-(2-cyclobutoxy-pyridin-3-yl)-2,6-difluoro-phenyl]-pentanoic acid], the concentration for a half-maximal effect (EC50) is < 200 nM.
Turning to `CC(C)Sc1ncccc1-c1cc(F)c(OCc2cc(O)no2)c(F)c1` [Example 68, 5-[[2,6-difluoro-4-(2-isopropylsulfanyl-3-pyridyl)phenoxy]methyl]isoxazol-3-ol], the EC50 was < 200 nM.
Under `CC(CCCC(=O)O)c1c(F)cc(-c2cccc3c2OC2(CCCC2)O3)cc1F` (stereo not drawn) [Example 450, 5-(2,6-difluoro-4-spiro[1,3-benzodioxol-2,1′-cyclopentan]-4-yl-phenyl)hexanoic acid] stands < 200 nM.
Next, `CC(C)Oc1cccc(-c2cc(F)c(N3CCC(CC(=O)O)C3)c(F)c2)n1` (stereo not drawn) [Example 563, {1-[2,6-difluoro-4-(6-isopropoxy-pyridin-2-yl)-phenyl]-pyrrolidin-3-yl}-acetic acid]: < 200 nM; `C[C@H](C/C=C/C(=O)O)c1c(F)cc(-c2cccnc2SC2CCC2)cc1F` [Example 228, (E)-(R)-5-[4-(2-cyclobutylsulfanyl-pyridin-3-yl)-2,6-difluoro-phenyl]-hex-2-enoic acid]: < 200 nM.
Under `COC(=O)N1c2c(cc(F)cc2-c2cc(F)c(OCCCC(=O)O)c(F)c2)CC1(C)C` [Example 265, 7-[4-(3-carboxy-propoxy)-3,5-difluoro-phenyl]-5-fluoro-2,2-dimethyl-2,3-dihydro-indol-1-carboxylic acid methyl ester] stands 200 to 2000 nM; under `CC(CCCC(=O)O)c1c(F)cc(-c2cccnc2OC2CCOCC2)cc1F` (stereo not drawn) [Example 231, 5-{2,6-difluoro-4-[2-(tetrahydro-pyran-4-yloxy)-pyridin-3-yl]-phenyl}-hexanoic acid], < 200 nM.
Take `Cc1cc(OC2CCC2)nc(-c2cc(F)c(OCCCC(=O)O)c(Cl)c2)c1` [Example 429, 4-[2-chloro-4-(6-cyclobutoxy-4-methyl-pyridin-2-yl)-6-fluoro-phenoxy]-butyric acid]: the EC50 is < 200 nM.
Under `O=C(O)CCCOc1c(F)cc(-c2cccnc2SC2CCCCC2)cc1F` [Example 292, 4-[4-(2-cyclohexylsulfanyl-pyridin-3-yl)-2,6-difluoro-phenoxy]-butyric acid] stands 2000 to 20000 nM; under `O=C(O)CCSCc1ccc(-c2cccnc2OC2CCCC2)cc1` [Example 293, 3-[4-(2-cyclopentyloxy-pyridin-3-yl)-benzylsulfanyl]-propionic acid], 200 to 2000 nM; under `Cc1cc(OC2CCC2)nc(-c2cc(F)c(C(C)CCCC(=O)O)c(F)c2)n1` (stereo not drawn) [Example 419, 5-[4-(4-cyclobutoxy-6-methyl-pyrimidin-2-yl)-2,6-difluoro-phenyl]-hexanoic acid], < 200 nM.
Next, `O=C(O)CCC1CCc2cc(-c3cccc(OC4CCC4)n3)ccc2O1` (stereo not drawn) [Example 444, 3-[6-[6-(cyclobutoxy)-2-pyridyl]chroman-2-yl]propanoic acid]: < 200 nM; `O=C(O)CCC1CC1c1c(F)cc(-c2cccnc2NC2CCCC2)cc1F` (stereo not drawn) [Example 183, 3-{2-[4-(2-cyclopentylamino-pyridin-3-yl)-2,6-difluoro-phenyl]-cyclopropyl}-propanoic acid]: < 200 nM; `O=C(O)CC1CN(c2c(F)cc(-c3cccc(OC4CCC4)n3)cc2F)C1` [Example 321, 2-[1-[4-[6-(cyclobutoxy)-2-pyridyl]-2,6-difluoro-phenyl]azetidin-3-yl]acetic acid]: < 200 nM.
